This is an account of results in article PMC10575836, “Elevated acetate kinase (ackA) gene expression, activity, and biofilm formation observed in methicillin-resistant strains of Staphylococcus aureus (MRSA)” (Journal of Genetic Engineering & Biotechnology, 2023).

The experiment has as its target T1, recombinant ackA (S. aureus ATCC12600 acetate kinase) (Staphylococcus aureus, UniProt Q8NW53).
T1 construct: full-length, His-6 tag from pQE 30 (Sal I/Hind III), clone PSackA, expressed in E. coli DH5alpha, nickel column, 44 kDa on SDS-PAGE
T1 sequence (Q8NW53 1-400): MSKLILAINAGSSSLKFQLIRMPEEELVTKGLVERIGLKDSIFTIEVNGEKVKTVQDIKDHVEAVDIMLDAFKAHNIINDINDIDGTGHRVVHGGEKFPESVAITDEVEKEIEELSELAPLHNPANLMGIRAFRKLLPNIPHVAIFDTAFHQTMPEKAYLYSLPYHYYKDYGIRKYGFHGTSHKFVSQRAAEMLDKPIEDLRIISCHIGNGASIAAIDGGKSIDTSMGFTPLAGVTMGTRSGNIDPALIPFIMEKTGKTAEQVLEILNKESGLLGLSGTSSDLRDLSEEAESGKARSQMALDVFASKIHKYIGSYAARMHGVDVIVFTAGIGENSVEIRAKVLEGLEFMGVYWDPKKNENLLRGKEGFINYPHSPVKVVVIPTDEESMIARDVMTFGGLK
Kind of experiment: coupled pyruvate kinase / lactate dehydrogenase assay, NADH at […] nm. The class given is biochemical. The note with it: 2 mM potassium acetate, 1.5 mM ATP, 2 mM MgCl2, 100 mM Tris-HCl pH 7.3.

As for `CC(=O)O` [potassium acetate], the “coupled pyruvate kinase / lactate dehydrogenase assay, NADH at 340 nm” value is listed as “Assays were initiated by the addition of either the cytosolic fraction or pure recombinant ackA”.
